pIC50: −log10 of the molar value.

The term pIC50 denotes the negative decadic logarithm of the IC50, by convention in mol/L.

For one experiment, the target named is T1, T. gondii CDPK1 (tgCDPK1) (Toxoplasma gondii, UniProt Q9BJF5).
T1 sequence (Q9BJF5 1-507): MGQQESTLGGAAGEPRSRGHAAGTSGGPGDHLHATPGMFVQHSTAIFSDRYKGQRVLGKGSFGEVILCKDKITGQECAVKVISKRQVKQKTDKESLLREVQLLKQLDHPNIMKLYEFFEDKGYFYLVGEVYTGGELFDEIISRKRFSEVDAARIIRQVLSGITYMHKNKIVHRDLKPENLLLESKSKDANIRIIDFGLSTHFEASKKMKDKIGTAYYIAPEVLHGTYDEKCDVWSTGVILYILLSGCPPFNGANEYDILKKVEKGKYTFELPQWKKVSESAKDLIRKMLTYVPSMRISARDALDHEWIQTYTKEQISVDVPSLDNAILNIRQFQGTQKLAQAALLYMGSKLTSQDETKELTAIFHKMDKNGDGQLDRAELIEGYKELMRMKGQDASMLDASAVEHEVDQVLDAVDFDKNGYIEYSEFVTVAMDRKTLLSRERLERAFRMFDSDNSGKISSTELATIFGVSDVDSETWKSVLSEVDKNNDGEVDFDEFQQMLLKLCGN
Put plainly: biochemical. To be noted: inhibition of T. gondii CDPK1; at least three independent replicates; read-out: tgCDPK1 IC50. On the procedure: Certain of the compounds prepared as described above were assayed to determine their IC50 for inhibition of T. gondii CDPK1 (tgCDPK1). At least three independent replicates of the assay were conducted for each compound tested.
For the compound `Nc1ncnc2c1c(Oc1cc(C(F)(F)F)ccn1)nn2[C@H]1CCCC[C@H]1O` (racemic) [191 cis (rac)], the pIC50 was 7.36.
With `Nc1ncnc2c1c(Oc1cc(C(F)(F)F)ccn1)nn2[C@@H]1CCCC[C@H]1O` (racemic) [191 trans (rac)], the pIC50 was 7.60.
The same measure, in the same setting: to `Nc1ncnc2c1c(Oc1cc(O)ccn1)nn2[C@@H]1CCCC[C@H]1O` (single isomer, unassigned) [Compound 283] belongs 6.83; to `Nc1ncnc2c1c(Oc1cc(O)ccn1)nn2[C@@H]1CCCC[C@@H]1O` (single isomer, unassigned) [Compound 284], 7.41.
Take `COc1ccnc(Oc2nn([C@@H]3CCCC[C@H]3O)c3ncnc(N)c23)c1` (single isomer, unassigned) [Compound 285]: the negative-log IC50 (pIC50) was 5.85.
Still for that read-out and setting: to `COc1ccnc(Oc2nn([C@H]3CCCC[C@H]3O)c3ncnc(N)c23)c1` (single isomer, unassigned) [Compound 286] belongs 6.84; to `Nc1ncnc2c1c(Oc1cc(C(F)(F)F)ccn1)nn2[C@@H]1CCCC[C@H]1O` [191 (R,R)], 8.08.
Same read-out and setting: to `Nc1ncnc2c1c(Oc1cc(C(F)(F)F)ccn1)nn2[C@H]1CCCC[C@@H]1O` [191 (S,S)] belongs 6.90; to `Nc1ncnc2c1c(Oc1cc(CO)ccn1)nn2C1CC1` [Compound 86, (2-((4-amino-1-cyclopropyl-1H-pyrazole[3,4-d]pyrimidin-3-yl)oxy)pyridin-4-yl)methanol], 7.53; to `COc1ccnc(Oc2nn(C3CCC3)c3ncnc(N)c23)c1` [Compound 112, 1-cyclobuty1-3-((4-methoxypyridin-2-yl)oxy)-1H-pyrazolo[3,4-d]pyrimidin-4-amine], 7.84.
The same measure, in the same setting: to `Nc1ncnc2c1c(Oc1cc(C(F)(F)F)ccn1)nn2[C@H]1C[C@H](O)C1` [Compound 113, (trans)-3-(4-amino-3-((4-(trifluoromethyl)pyridin-2-yl)oxy)-1H-pyrazolo[3,4-d]pyrimidin-1-yl)cyclobutan-1-ol] belongs 7.58.
Regarding `Nc1ncnc2c1c(Oc1cc(Cl)ccn1)nn2[C@H]1C[C@H](O)C1` [Compound 116], the pIC50 was 7.81.
As to `Nc1ncnc2c1c(Oc1cccc(Cl)c1)nn2C1CCC1` [Compound 121, 3-(3-chlorophenoxy)-1-cyclobutyl-1H-pyrazolo[3,4-d]pyrimidin-4-amine], the pIC50 was 8.13.
`Nc1ncnc2c1c(Cc1cccc(Cl)c1)nn2[C@H]1C[C@H](O)C1` [Compound 124, (trans)-3-(4-amino-3-(3-chlorobenzyl)-1H-pyrazolo[3,4-d]pyrimidin-1-yl)cyclobutan-1-ol]: the pIC50 is 8.05.
For the compound `Nc1ncnc2c1c(Cc1cccc(C(F)(F)F)c1)nn2[C@H]1C[C@H](O)C1` [Compound 125], the pIC50 is 7.44.
On to `Nc1ncnc2c1c(Cc1cccc(Br)c1)nn2[C@H]1C[C@H](O)C1` [Compound 127], for which the pIC50 is 7.74.
The same measure, in the same setting: to `Nc1ncnc2c1c(Cc1cccc(F)c1)nn2[C@H]1C[C@H](O)C1` [Compound 128] belongs 7.55; to `Nc1ncnc2c1c(Cc1cccc(Cl)c1)nn2[C@H]1C[C@@H](O)C1` [Compound 130, (cis)-3-(4-amino-3-(3-chlorobenzyl)-1H-pyrazolo[3,4-d]pyrimidin-1-yl)cyclobutan-1-ol], 7.82; to `Nc1ncnc2c1c(Cc1cccc(Br)c1)nn2[C@H]1C[C@@H](O)C1` [Compound 131], 7.94.
Take `Nc1ncnc2c1c(Cc1cccc(F)c1)nn2[C@H]1C[C@@H](O)C1` [Compound 132]: the pIC50 is 7.55.
Same read-out and setting: to `Nc1ncnc2c1c(Cc1cccc(Cl)c1)nn2[C@H]1C[C@@H](F)C1` [Compound 135, 3-(3-chlorobenzyl)-1-((cis)-3-fluorocyclobutyl)-1H-pyrazolo[3,4-d]pyrimidin-4-amine] belongs 8.15.
In the case of `Nc1ncnc2c1c(Oc1cccc(C(F)(F)F)c1)nn2[C@H]1C[C@@H](O)C1` [Compound 151], the pIC50 is 7.50.
On to `Nc1ncnc2c1c(Oc1cccc(Cl)c1)nn2[C@H]1C[C@@H](O)C1` [Compound 152], for which the pIC50 is 7.56.
The same measure, in the same setting: to `Nc1ncnc2c1c(Oc1cccc(Cl)c1)nn2[C@H]1C[C@H](F)C1` [Compound 156] belongs 8.00; to `Nc1ncnc2c1c(Cc1c[nH]c3ccc(F)cc13)nn2[C@H]1C[C@H](F)C1` [Compound 157], 7.96.
On the same count and under the same terms, to `Nc1ncnc2c1c(Oc1cc(C(F)(F)F)ccn1)nn2C1CC1` [Compound 159] belongs 7.89.
On the same count and under the same terms, to `Nc1ncnc2c1c(Cc1cccc(F)c1)nn2[C@H]1C[C@H](F)C1` [Compound 161] belongs 7.85; to `COc1ccnc(Oc2nn([C@H]3C[C@H](F)C3)c3ncnc(N)c23)c1` [Compound 162], 7.76; to `Nc1ncnc2c1c(Oc1cc(Cl)ccn1)nn2[C@H]1C[C@@H](O)C1` [Compound 163], 7.74.
As to `Nc1ncnc2c1c(Cc1cccc(F)c1)cn2[C@H]1C[C@H](O)C1` [Compound 164], the pIC50 is 7.55.
For `Nc1ncnc2c1c(Oc1cc(C3CC3)ccn1)nn2C1CC1` [Compound 165], the pIC50 is 7.54.
Same read-out and setting: to `Nc1ncnc2c1c(Oc1cccc(C(F)(F)F)c1)nn2[C@H]1C[C@H](F)C1` [Compound 166] belongs 7.54.
On to `COc1ccnc(Oc2nn([C@H]3C[C@@H](O)C3)c3ncnc(N)c23)c1` [Compound 168], for which the pIC50 was 7.43.
Regarding `Nc1ncnc2c1c(Oc1cc(OC(F)(F)F)ccn1)nn2C1CC1` [Compound 169], the pIC50 was 7.42.
Take `Nc1ncnc2c1c(Oc1cc(C(F)(F)F)ccn1)nn2[C@H]1C[C@@H](O)C1` [Compound 170]: the pIC50 was 7.41.
Still for that read-out and setting: to `N#Cc1cccc(Cc2nn([C@H]3C[C@H](F)C3)c3ncnc(N)c23)c1` [Compound 172] belongs 7.34; to `N#Cc1cccc(Oc2nn([C@H]3C[C@H](F)C3)c3ncnc(N)c23)c1` [Compound 173], 7.30; to `NC(=O)c1ccnc(Oc2nn([C@H]3C[C@H](F)C3)c3ncnc(N)c23)c1` [Compound 174], 7.16.
Same read-out and setting: to `COc1ccnc(Oc2nn([C@H]3C[C@H](F)C3)c3ncnc(N)c23)c1` [Compound 175] belongs 7.76; to `N#Cc1cccc(Oc2nn([C@H]3C[C@H](O)C3)c3ncnc(N)c23)c1` [Compound 178], 7.10; to `Nc1ncnc2c1c(Oc1cccc(C(F)(F)F)c1)nn2[C@H]1C[C@H](O)C1` [Compound 179], 7.32.
Still for that read-out and setting: to `Nc1ncnc2c1c(Cc1c[nH]c3ccc(F)cc13)nn2[C@H]1C[C@H](O)C1` [Compound 184] belongs 7.99.
With `Nc1ncnc2c1c(Oc1cc(C(F)(F)F)ccn1)nn2C1CCC(F)(F)CC1` [Compound 185], the pIC50 was 7.42.
For the compound `Nc1ncnc2c1c(Oc1cc(C(F)(F)F)ccn1)nn2CC1CC1` [Compound 186], the pIC50 is 7.65.
Still for that read-out and setting: to `Nc1ncnc2c1c(Oc1cc(O)ccn1)nn2C1CCC(F)(F)CC1` [Compound 187, 2-((4-amino-1-(4,4-difluorocyclohexyl)-1H-pyrazolo[3,4-d]pyrimidin-3-yl)oxy)pyridin-4-ol] belongs 8.00.
Same read-out and setting: to `Nc1ncnc2c1c(Oc1cc(Cl)ccn1)nn2C1CCNCC1` [Compound 188] belongs 7.53; to `Nc1ncnc2c1c(Oc1cc(Cl)ccn1)nn2C1CCCNC1` (stereo not shown) [Compound 189], around 7.62.
Consider `Nc1ncnc2c1c(Oc1cc(C(F)(F)F)ccn1)nn2C1CNCC(F)(F)C1` (stereo not shown) [Compound 190], for which the pIC50 is around 7.27.
Same read-out and setting: to `Nc1ncnc2c1c(Oc1cc(C(F)(F)F)ccn1)nn2C1CCCC1` [Compound 192] belongs 7.72; to `Nc1ncnc2c1c(Oc1cc(C(F)(F)F)ccn1)nn2C1CCOC1` (stereo not shown) [Compound 193], 7.32.
In the case of `Nc1ncnc2c1c(Oc1cc(C(F)(F)F)ccn1)nn2C1CCNCC1` [Compound 194], the pIC50 is 7.17.
Regarding `Nc1ncnc2c1c(Oc1cc(C(F)(F)F)ccn1)nn2C1CCCNC1` (stereo not shown) [Compound 195], the pIC50 is 7.25.
Still for that read-out and setting: to `CC(C)(C)OC(=O)N1CCC(Cn2nc(Oc3cc(C(F)(F)F)ccn3)c3c(N)ncnc32)C(F)(F)C1` (stereo not shown) [Compound 196] belongs 7.19.
Still for that read-out and setting: to `Nc1ncnc2c1c(Oc1cc(C(F)(F)F)ccn1)nn2CC1CCNCC1(F)F` (stereo not shown) [Compound 197] belongs 7.86; to `Nc1ncnc2c1c(Oc1cc(C(F)(F)F)ccn1)nn2C1CCOCC1` [Compound 198], 7.53.
For the compound `CC(C)(C)OC(=O)N1CCC(n2nc(Oc3cc(C(F)(F)F)ccn3)c3c(N)ncnc32)C1` (stereo not shown) [Compound 199], the negative logarithm of the IC50 (pIC50) is 7.41.
As to `Nc1ncnc2c1c(Oc1cc(C(F)(F)F)ccn1)nn2C1CCCCC1` [Compound 200], the pIC50 was 7.83.
`Nc1ncnc2c1c(Oc1cc(Cl)ccn1)nn2C1CCCC1` [Compound 201]: the pIC50 is 7.78.
On the same count and under the same terms, to `Nc1ncnc2c1c(Oc1cc(Cl)ccn1)nn2C1CCOC1` (stereo not shown) [Compound 202] belongs 7.25; to `N#Cc1ccnc(Oc2nn(C3CCC(F)(F)CC3)c3ncnc(N)c23)c1` [Compound 203], 7.07.

The same experiment, now with this note: tgCDPK1 IC50, inhibition of T. gondii CDPK1; at least three independent replicates.
In turn, `Nc1ncnc2c1c(Oc1cccc(Cl)c1)nn2[C@H]1C[C@H](F)C1` [Compound 171] showed a negative logarithm of the IC50 (pIC50) of 7.39.

Source of the values: patent publication US20210347780A1, “CDPK1 INHIBITORS, COMPOSITIONS, AND METHODS RELATED THERETO” (Vyera Pharmaceuticals, LLC, priority 2018, published 2021).
